Results as given in the supplement of paper PMC10307832.

Key:
Assay in all cases: relative viability (nuclei count vs DMSO), 5 days (fraction); higher = more cells survive
LCLC-103H = tested on: LCLC-103H
In short: (§1)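 Five library-drug doses in √10 steps were combined with a fixed anchor-drug dose, or a single drug was given alone, by pin tool to lung cancer cell lines in 1536-well plates the day after seeding. Nuclei were stained and counted after 5 days. Relative viability is the nuclei count in treated wells over that in vehicle wells, taken as the median of duplicate plates.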

UMC-11 = tested on: UMC-11
In short: as §1

HCC-15 = tested on: HCC-15
In short: as §1

NCI-H522 = tested on: NCI-H522
In short: as §1

NCI-H1623 = tested on: NCI-H1623
In short: as §1

NCI-H1648 = tested on: NCI-H1648
In short: as §1

Q: With `NC(=O)Nc1cc(-c2cccc(F)c2)sc1C(=O)N[C@H]1CCCNC1` [AZD7762] + Cc1cc(Nc2cc(N3CCN(C)CC3)nc(Sc3ccc(NC(=O)C4CC4)cc3)n2)n[nH]1 [Tozasertib] (partner 0.1 µM) as the compound, how does the relative viability (LCLC-103H; first compound 0.01 µM) read?
A: 0.522

Q: What about the relative viability (LCLC-103H; first compound 0.03162 µM) of the same compound?
A: 0.442

Q: What about the relative viability (LCLC-103H; first compound 0.1 µM) of the same compound?
A: 0.524

Q: What about the relative viability (LCLC-103H; first compound 0.3162 µM) of the same compound?
A: 0.516

Q: What about the relative viability (LCLC-103H; first compound 1 µM) of the same compound?
A: 0.323

Q: What about the relative viability (UMC-11; first compound 0.01 µM) of the same compound?
A: 0.191

Q: And the relative viability (UMC-11; first compound 0.03162 µM)?
A: 0.216

Q: What about the relative viability (UMC-11; first compound 0.1 µM) of the same compound?
A: 0.202

Q: What about the relative viability (UMC-11; first compound 0.3162 µM) of the same compound?
A: 0.194

Q: What about the relative viability (UMC-11; first compound 1 µM) of the same compound?
A: 0.191

Q: And the relative viability (HCC-15; first compound 0.01 µM)?
A: 0.448

Q: And the relative viability (HCC-15; first compound 0.03162 µM)?
A: 0.381

Q: What about the relative viability (HCC-15; first compound 0.1 µM) of the same compound?
A: 0.511

Q: And the relative viability (HCC-15; first compound 0.3162 µM)?
A: 0.432

Q: What about the relative viability (HCC-15; first compound 1 µM) of the same compound?
A: 0.212

Q: And the relative viability (NCI-H522; first compound 0.01 µM)?
A: 0.536

Q: What about the relative viability (NCI-H522; first compound 0.03162 µM) of the same compound?
A: 0.657

Q: And the relative viability (NCI-H522; first compound 0.1 µM)?
A: 0.621

Q: What about the relative viability (NCI-H522; first compound 0.3162 µM) of the same compound?
A: 0.566

Q: What about the relative viability (NCI-H522; first compound 1 µM) of the same compound?
A: 0.535

Q: What about the relative viability (NCI-H1623; first compound 0.01 µM) of the same compound?
A: 0.4

Q: What about the relative viability (NCI-H1623; first compound 0.03162 µM) of the same compound?
A: 0.43

Q: And the relative viability (NCI-H1623; first compound 0.1 µM)?
A: 0.44

Q: What about the relative viability (NCI-H1623; first compound 0.3162 µM) of the same compound?
A: 0.441

Q: And the relative viability (NCI-H1623; first compound 1 µM)?
A: 0.39

Q: What about the relative viability (NCI-H1648; first compound 0.01 µM) of the same compound?
A: 0.527

Q: What about the relative viability (NCI-H1648; first compound 0.03162 µM) of the same compound?
A: 0.552

Q: What about the relative viability (NCI-H1648; first compound 0.1 µM) of the same compound?
A: 0.36

Q: And the relative viability (NCI-H1648; first compound 0.3162 µM)?
A: 0.451

Q: And the relative viability (NCI-H1648; first compound 1 µM)?
A: 0.425

Q: Which relative viability (LCLC-103H; first compound 0.08 µM) does the source give for `C=C1C(=O)O[C@@H](CCCCCCCC)[C@@H]1C(=O)O` [C-75] + COc1cccc2cc(-c3nc([C@H]4CC[C@H](C(=O)O)CC4)n4ncnc(N)c34)[nH]c12 [OSI-027] (partner 0.5 µM) here?
A: 0.471

Q: What about the relative viability (LCLC-103H; first compound 0.253 µM) of the same compound?
A: 0.495

Q: And the relative viability (LCLC-103H; first compound 0.8 µM)?
A: 0.432

Q: And the relative viability (LCLC-103H; first compound 2.53 µM)?
A: 0.337

Q: What about the relative viability (LCLC-103H; first compound 8 µM) of the same compound?
A: 0.472

Q: What about the relative viability (UMC-11; first compound 0.08 µM) of the same compound?
A: 0.457

Q: And the relative viability (UMC-11; first compound 0.253 µM)?
A: 0.579

Q: What about the relative viability (UMC-11; first compound 0.8 µM) of the same compound?
A: 0.477

Q: And the relative viability (UMC-11; first compound 2.53 µM)?
A: 0.461

Q: What about the relative viability (UMC-11; first compound 8 µM) of the same compound?
A: 0.417

Q: What about the relative viability (HCC-15; first compound 0.08 µM) of the same compound?
A: 0.628

Q: And the relative viability (HCC-15; first compound 0.253 µM)?
A: 0.707

Q: What about the relative viability (HCC-15; first compound 0.8 µM) of the same compound?
A: 0.655

Q: And the relative viability (HCC-15; first compound 2.53 µM)?
A: 0.502

Q: What about the relative viability (HCC-15; first compound 8 µM) of the same compound?
A: 0.636

Q: What about the relative viability (NCI-H522; first compound 0.08 µM) of the same compound?
A: 0.744

Q: What about the relative viability (NCI-H522; first compound 0.253 µM) of the same compound?
A: 0.819

Q: What about the relative viability (NCI-H522; first compound 0.8 µM) of the same compound?
A: 0.753

Q: What about the relative viability (NCI-H522; first compound 8 µM) of the same compound?
A: 0.641

Q: What about the relative viability (NCI-H1623; first compound 0.08 µM) of the same compound?
A: 0.463

Q: What about the relative viability (NCI-H1623; first compound 0.253 µM) of the same compound?
A: 0.503

Q: What about the relative viability (NCI-H1623; first compound 0.8 µM) of the same compound?
A: 0.416

Q: And the relative viability (NCI-H1623; first compound 2.53 µM)?
A: 0.38

Q: What about the relative viability (NCI-H1623; first compound 8 µM) of the same compound?
A: 0.457

Q: What about the relative viability (NCI-H1648; first compound 0.08 µM) of the same compound?
A: 0.238

Q: And the relative viability (NCI-H1648; first compound 0.253 µM)?
A: 0.301

Q: And the relative viability (NCI-H1648; first compound 0.8 µM)?
A: 0.276

Q: What about the relative viability (NCI-H1648; first compound 8 µM) of the same compound?
A: 0.267

Q: With `C=C1C(=O)O[C@@H](CCCCCCCC)[C@@H]1C(=O)O` [C-75] + Cc1cc(Nc2cc(N3CCN(C)CC3)nc(Sc3ccc(NC(=O)C4CC4)cc3)n2)n[nH]1 [Tozasertib] (partner 0.1 µM) as the compound, how does the relative viability (LCLC-103H; first compound 0.08 µM) read?
A: 0.597

Q: And the relative viability (LCLC-103H; first compound 0.253 µM)?
A: 0.543

Q: What about the relative viability (LCLC-103H; first compound 0.8 µM) of the same compound?
A: 0.428

Q: And the relative viability (LCLC-103H; first compound 2.53 µM)?
A: 0.514

Q: And the relative viability (LCLC-103H; first compound 8 µM)?
A: 0.406

Q: What about the relative viability (UMC-11; first compound 0.08 µM) of the same compound?
A: 0.213

Q: What about the relative viability (UMC-11; first compound 0.253 µM) of the same compound?
A: 0.202

Q: And the relative viability (UMC-11; first compound 0.8 µM)?
A: 0.209

Q: And the relative viability (UMC-11; first compound 2.53 µM)?
A: 0.161

Q: And the relative viability (UMC-11; first compound 8 µM)?
A: 0.227

Q: What about the relative viability (HCC-15; first compound 0.08 µM) of the same compound?
A: 0.457

Q: What about the relative viability (HCC-15; first compound 0.253 µM) of the same compound?
A: 0.608

Q: And the relative viability (HCC-15; first compound 0.8 µM)?
A: 0.407

Q: And the relative viability (HCC-15; first compound 2.53 µM)?
A: 0.427

Q: What about the relative viability (HCC-15; first compound 8 µM) of the same compound?
A: 0.39

Q: What about the relative viability (NCI-H522; first compound 0.08 µM) of the same compound?
A: 0.585

Q: What about the relative viability (NCI-H522; first compound 0.253 µM) of the same compound?
A: 0.598

Q: And the relative viability (NCI-H522; first compound 0.8 µM)?
A: 0.489

Q: What about the relative viability (NCI-H522; first compound 8 µM) of the same compound?
A: 0.497

Q: And the relative viability (NCI-H1623; first compound 0.08 µM)?
A: 0.471

Q: And the relative viability (NCI-H1623; first compound 0.253 µM)?
A: 0.417

Q: What about the relative viability (NCI-H1623; first compound 0.8 µM) of the same compound?
A: 0.477

Q: And the relative viability (NCI-H1623; first compound 2.53 µM)?
A: 0.419

Q: And the relative viability (NCI-H1623; first compound 8 µM)?
A: 0.461

Q: What about the relative viability (NCI-H1648; first compound 0.08 µM) of the same compound?
A: 0.387

Q: What about the relative viability (NCI-H1648; first compound 0.253 µM) of the same compound?
A: 1.26

Q: What about the relative viability (NCI-H1648; first compound 0.8 µM) of the same compound?
A: 0.465

Q: And the relative viability (NCI-H1648; first compound 8 µM)?
A: 0.468
